Test results reported in PubChem BioAssay AID2060908 (Molecular Pharmacology Branch, DTP, NCI, 2025).
Values joined by “and” are separate entries in the source; they are usually repeats but may differ in a detail not shown here. Equal values may be shown once.

Test system: 186277-243-T-J2-PDC complex spheroids, viability
Test: Anticancer human tumor 186277-243-T-J2-PDC patient-derived colon adenocarcinoma cell line growth inhibition [RAS]
Settings: for viability, T/C: stronger effect = lower value
Method in brief: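 Multi-cell-type spheroids: tumor cells plus HUVEC endothelial cells and mesenchymal stem cells. RAS-pathway inhibitors were combined with targeted agents, each dosed in half-log steps down from clinical Cmax, or from 10 microM when Cmax was unknown.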

[1] = curve of first compound, second compound 0.000949 µM
[2] = curve of first compound, second compound 0.003 µM
[3] = curve of first compound, second compound 0.00949 µM
[4] = curve of first compound, second compound 0.03 µM
[5] = curve of first compound, second compound 0.0949 µM
[6] = curve of first compound, second compound 0.3 µM
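Further: spheroids exposed to compounds for 7 days before viability read.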

C=CC(=O)Nc1cc(Nc2nccc(-c3cn(C)c4ccccc34)n2)c(OC)cc1N(C)CCN(C)C + CCn1c(-c2cc(N3CCN(C)CC3)cnc2C(C)OC)c2c3cc(ccc31)-c1csc(n1)CC(NC(=O)C1CC1C)C(=O)N1CCCC(N1)C(=O)OCC(C)(C)C2
IC50 [1]: > 1000 nM | IC50 [2]: 348 nM | IC50 [3]: 10.9 nM | IC50 [4]: < 3.16 nM | IC50 [5]: < 3.16 nM | IC50 [6]: < 3.16 nM | viability, T/C (second compound 0.000949 µM, first compound 0.00316 µM): 103% | viability, T/C (second compound 0.000949 µM, first compound 0.01 µM): 112% | viability, T/C (second compound 0.000949 µM, first compound 0.0316 µM): 107% | viability, T/C (second compound 0.000949 µM, first compound 0.1 µM): 115% | viability, T/C (second compound 0.000949 µM, first compound 0.316 µM): 85.2% | viability, T/C (second compound 0.000949 µM, first compound 1 µM): 52.6% | viability, T/C (second compound 0.003 µM, first compound 0.00316 µM): 106% | viability, T/C (second compound 0.003 µM, first compound 0.01 µM): 104% | viability, T/C (second compound 0.003 µM, first compound 0.0316 µM): 91.8% | viability, T/C (second compound 0.003 µM, first compound 0.1 µM): 81.6% | viability, T/C (second compound 0.003 µM, first compound 0.316 µM): 52.3% | viability, T/C (second compound 0.003 µM, first compound 1 µM): 15.8% | viability, T/C (second compound 0.00949 µM, first compound 0.00316 µM): 58.3% | viability, T/C (second compound 0.00949 µM, first compound 0.01 µM): 48.7% | viability, T/C (second compound 0.00949 µM, first compound 0.0316 µM): 40.6% | viability, T/C (second compound 0.00949 µM, first compound 0.1 µM): 28.8% | viability, T/C (second compound 0.00949 µM, first compound 0.316 µM): 10.8% | viability, T/C (second compound 0.00949 µM, first compound 1 µM): 5.19% | viability, T/C (second compound 0.03 µM, first compound 0.00316 µM): 18.4% | viability, T/C (second compound 0.03 µM, first compound 0.01 µM): 15.4% | viability, T/C (second compound 0.03 µM, first compound 0.0316 µM): 12.1% | viability, T/C (second compound 0.03 µM, first compound 0.1 µM): 9.43% | viability, T/C (second compound 0.03 µM, first compound 0.316 µM): 5.63% | viability, T/C (second compound 0.03 µM, first compound 1 µM): 4.11% | viability, T/C (second compound 0.0949 µM, first compound 0.00316 µM): 7.42% | viability, T/C (second compound 0.0949 µM, first compound 0.01 µM): 6.89% | viability, T/C (second compound 0.0949 µM, first compound 0.0316 µM): 5.88% | viability, T/C (second compound 0.0949 µM, first compound 0.1 µM): 4.8% | viability, T/C (second compound 0.0949 µM, first compound 0.316 µM): 4.22% | viability, T/C (second compound 0.0949 µM, first compound 1 µM): 2.72% | viability, T/C (second compound 0.3 µM, first compound 0.00316 µM): 6% | viability, T/C (second compound 0.3 µM, first compound 0.01 µM): 6% | viability, T/C (second compound 0.3 µM, first compound 0.0316 µM): 4.87% | viability, T/C (second compound 0.3 µM, first compound 0.1 µM): 4.47% | viability, T/C (second compound 0.3 µM, first compound 0.316 µM): 4.17% | viability, T/C (second compound 0.3 µM, first compound 1 µM): 2.68%

Cc1nc(N2CCC3(CC2)COC(C)C3N)c(CO)nc1Sc1ccnc(N)c1Cl (stereo unspecified)
viability, T/C (compound 0.0316 µM): 101% [middle of 4 runs] | viability, T/C (compound 0.316 µM): 107% [middle of 4 runs] | viability, T/C (compound 1 µM): 110% (2×) and 105% and 119% | viability, T/C (compound 3.16 µM): 119% (2×) and 105% and 91.9% | IC50 (curve of compound): > 10000 nM

CC1(C)CCC(Nc2ncc(C(F)(F)F)c(-c3c[nH]c4c(P(C)(C)=O)c(C#N)ccc34)n2)CN1 (stereo unspecified) + CCn1c(-c2cccnc2C(C)OC)c2c3cc(ccc31)N1CCOC(CC(NC(=O)C(C(C)C)N(C)C(=O)C3(F)CCN(C(=O)C#CC(C)(C)N(C)C)CC3)C(=O)N3CCCC(N3)C(=O)OCC(C)(C)C2)C1
IC50 [1]: > 300 nM | IC50 [2]: 236 nM | IC50 [3]: > 300 nM | IC50 [4]: > 300 nM | IC50 [5]: 135 nM | IC50 [6]: 36.1 nM | viability, T/C (second compound 0.000949 µM, first compound 0.000949 µM): 79.3% | viability, T/C (second compound 0.000949 µM, first compound 0.003 µM): 84.8% | viability, T/C (second compound 0.000949 µM, first compound 0.00949 µM): 112% | viability, T/C (second compound 0.000949 µM, first compound 0.03 µM): 81.5% | viability, T/C (second compound 0.000949 µM, first compound 0.0949 µM): 57.9% | viability, T/C (second compound 0.000949 µM, first compound 0.3 µM): 51.6% | viability, T/C (second compound 0.003 µM, first compound 0.000949 µM): 100% | viability, T/C (second compound 0.003 µM, first compound 0.003 µM): 90.2% | viability, T/C (second compound 0.003 µM, first compound 0.00949 µM): 103% | viability, T/C (second compound 0.003 µM, first compound 0.03 µM): 83.5% | viability, T/C (second compound 0.003 µM, first compound 0.0949 µM): 58.6% | viability, T/C (second compound 0.003 µM, first compound 0.3 µM): 47.4% | viability, T/C (second compound 0.00949 µM, first compound 0.000949 µM): 104% | viability, T/C (second compound 0.00949 µM, first compound 0.003 µM): 104% | viability, T/C (second compound 0.00949 µM, first compound 0.00949 µM): 103% | viability, T/C (second compound 0.00949 µM, first compound 0.03 µM): 85.6% | viability, T/C (second compound 0.00949 µM, first compound 0.0949 µM): 56.3% | viability, T/C (second compound 0.00949 µM, first compound 0.3 µM): 50.5% | viability, T/C (second compound 0.03 µM, first compound 0.000949 µM): 92% | viability, T/C (second compound 0.03 µM, first compound 0.003 µM): 98.6% | viability, T/C (second compound 0.03 µM, first compound 0.00949 µM): 108% | viability, T/C (second compound 0.03 µM, first compound 0.03 µM): 85.1% | viability, T/C (second compound 0.03 µM, first compound 0.0949 µM): 57.9% | viability, T/C (second compound 0.03 µM, first compound 0.3 µM): 49.7% | viability, T/C (second compound 0.0949 µM, first compound 0.000949 µM): 107% | viability, T/C (second compound 0.0949 µM, first compound 0.003 µM): 103% | viability, T/C (second compound 0.0949 µM, first compound 0.00949 µM): 91.9% | viability, T/C (second compound 0.0949 µM, first compound 0.03 µM): 71.1% | viability, T/C (second compound 0.0949 µM, first compound 0.0949 µM): 53.3% | viability, T/C (second compound 0.0949 µM, first compound 0.3 µM): 43.3% | viability, T/C (second compound 0.3 µM, first compound 0.000949 µM): 102% | viability, T/C (second compound 0.3 µM, first compound 0.003 µM): 96.3% | viability, T/C (second compound 0.3 µM, first compound 0.00949 µM): 87.8% | viability, T/C (second compound 0.3 µM, first compound 0.03 µM): 51.9% | viability, T/C (second compound 0.3 µM, first compound 0.0949 µM): 36.8% | viability, T/C (second compound 0.3 µM, first compound 0.3 µM): 30.8%

CC(=O)OC12COC1CC(O)C1(C)C(=O)C(O)C3=C(C)C(OC(=O)C(O)C(NC(=O)OC(C)(C)C)c4ccccc4)CC(O)(C(OC(=O)c4ccccc4)C21)C3(C)C (stereo unspecified)
viability, T/C (compound 0.0316 µM): 8.57% [middle of 4 runs] | viability, T/C (compound 0.1 µM): 7.52% [middle of 4 runs] | viability, T/C (compound 0.316 µM): 7.03% [middle of 4 runs] | viability, T/C (compound 1 µM): 6.22% [middle of 4 runs] | viability, T/C (compound 3.16 µM): 5.95% [middle of 4 runs] | viability, T/C (compound 10 µM): 6.14% [middle of 4 runs] | IC50 (curve of compound): < 31.6 nM
